Where two headings read alike, the source gives them in different places.

Data on ten compounds can be found in US12227512B2, “Benzimidazoles and methods of using same” (priority 2019, dated 2025).

For data set [1], the system named is SUFU-KO-Light cells expressing Gli-luciferase. Kind of data set: Dose-effect curves, dual-Glo luciferase, Compusyn. The format is cell-based. The conditions noted are these: SUFU-KO-Light, Gli-luciferase, Fa=0.5.
Another data set relates to MB002 cells. Nature of the data set: MTT assay, cell proliferation. The format is cell-based. The conditions noted are these: MB002, MTT, dose for Fa=0.5 inhibition (50%).
Data set [2] concerns Hedgehog signaling (Gli transcription factors). Kind of data set: Hedgehog pathway inhibition, cell-based reporter sensitive to Shh ligand. The conditions noted are these: read-out: EC50, hedgehog inhibition potency.
The test system of data set [3] is Zika MR766. Kind of data set: In vitro antiviral screening, Neutral Red (Cytopathic effect). The conditions noted are these: Vero 76; for SI50: Assay No. 3, Neutral Red (Cytopathic effect/Toxicity); for EC50: Zika virus.
For another data set, the system named is Gli-1 and c-Myc. Nature of the data set: Western blot of Gli-1 and c-Myc in SUFU-KO-Light cells. The format is cell-based. The settings on record: 48 hours, immunoblotting.
Data set [4] has as its system Gli-luciferace activity in the SUFU-KO-light cells. Nature of the data set: SUFU-KO-Light assay, inhibition of Gli-luciferase activity. The format is cell-based. From the text: IC50 SUFO-KO-Light values are for inhibition of Gli-luciferace activity in the SUFU-KO-light cells developed by the James Chen laboratory at Stanford University.
Data set [5] concerns cap-dependent and Myc 5'-UTR cap-independent translation. Nature of the data set: Dual luciferase Myc 5' UTR translation reporter in Huh 7.5 cells. The settings on record: Renilla (5' cap) / firefly (Myc 5' UTR) luciferase. The format is cell-based. From the text:
The dual luciferase plasmid construct described by Willis and co-workers was transfected into Huh 7.5 cells. The Renilla luciferase cistron is translated from a 5′ cap, then the Myc 5′ UTR is placed in front of firefly luciferase to evaluate cap-independent translation from the same mRNA. […] This assay is a proxy for c-Myc translation activity. See also Stoneley et al. (2000) Nucleic Acids Res. 28: 687-94.

Data set [6] deals with Zika MR766. Nature of the data set: In vitro antiviral screening, Visual (Virus yield reduction). The settings on record: Vero 76; for SI90: Assay No. 3, Visual (Virus yield reduction)/Neutral Red (Toxicity); for EC90: Zika virus.
Data set [7] in a line: Neutral Red (Toxicity) of the antiviral screening. The settings on record: human.
For data set [8], the system named is Hedgehog signaling (Gli transcription factors). Nature of the data set: Hedgehog pathway inhibition, cell-based reporter derived from fibroblast SUFU knockouts. The settings on record: read-out: EC50, hedgehog inhibition potency.
For data set [9], the system named is Dengue virus 2 New Guinea C. Kind of data set: In vitro antiviral screening, Visual (Virus yield reduction). The conditions noted are these: Huh7; for SI90: Visual (Virus yield reduction)/Neutral Red (Toxicity); for EC90: Dengue virus, Visual (Virus yield reduction).
The subject of a further data set is CML CD34+ cells. Nature of the data set: Colony-forming assay, Chronic Myeloid Leukemia. The settings on record: for CML CD34+ colony formation: 0 μM = 100.
The subject of data set [10] is Dengue virus 2 New Guinea C. Nature of the data set: In vitro antiviral screening, Neutral Red (Cytopathic effect). The settings on record: Huh7; for SI50: Neutral Red (Cytopathic effect/Toxicity); for EC50: Dengue virus, Neutral Red (Cytopathic effect).
The nature of data set [11]: Neutral Red (Toxicity) of the antiviral screening. The conditions noted are these: African green monkey.
In data set [12] the test system is Raji (Burkitt Lymphoma cell line). Kind of data set: Raji cell viability / proliferation. The settings on record: Homo sapiens, read-out: IC50, Raji cell proliferation.
In a further data set the test system is c-Myc and n-Myc. Nature of the data set: Western blot for c-Myc and n-Myc in Huh7.5 cells. The format is cell-based. The settings on record: 2 μM compound, Western blotting. Here is the method: Referring to FIG. 8, the ability of Isis-11 (racemic) to inhibit c-Myc and n-Myc was evaluated. Huh7.5 cells were treated with 2 μM compound or no compound as a control. The cells were lysed and harvested at the indicated times. Western blotting was performed using antibodies as shown after serial stripping. […] YB-1 is known to be part of a positive feedback loop with Myc and is also affected by Myc inhibition.

For data set [13], the system named is Rift Valley Fever Virus (RVFV). The conditions noted are these: reported value; cited from earlier work.
Where [14] appears, read: inhibition of Gli-luciferase activity, read-out: IC50 (μM) SUFU-KO-Light.
Where [15] appears, read: Huh-7, Control drug, Assay No. 1.
Where [16] appears, read: Huh-7, Control drug, Assay No. 2.

Regarding `CC(C)n1nc(-c2ccc3oc(N)nc3c2)c2c(N)ncnc21` [Ink-128, reference compound], the EC50 in data set [1] (read-out: EC50 as single agent) is 6 nM; in data set [1] (unit from FIG. 15 legend, read-out: Dose Ink), 6.13 nM. Further, the IC50 with MB002 cells (read-out: Dose Ink) amounted to 60 nM.
For the compound `CN(C)CCCn1c(N)nc2ccc3c(c21)CC(CN(C)C)O3` (racemic) [Isis-11], the EC50 is around 100 nM in data set [2]; 880 nM in the data set with Zika MR766 [3]; around 100 nM in [8]; around 150 nM in the data set on CML CD34+ cells (read-out: EC50, CML CD34+ colony formation); around 150 nM with CML CD34+ cells (read-out: EC50, inhibition of colony formation); 1800 nM in [10] (Huh-7, Assay No. 1). The compound further registered an EC50 in [10] (Huh-7, Assay No. 2) of 490 nM. In addition, the SI50 in the data set with Zika MR766 [3] was found to be 23; in data set [10] (Assay No. 1), 3.8; in data set [10] (Assay No. 2) it was 4.9. The “Gli-1 and c-Myc levels” value in the data set with Gli-1 and c-Myc was “decrease both Gli-1 and c-Myc”. For the same compound, the IC50 in data set [4] (read-out: IC50 (μM) SUFU-KO-Light, inhibition of Gli-luciferase activity) was 0.2 µM; in data set [12] it was 500 nM. Also, the “effect on cap-dependent and cap-independent translation” value in data set [5] was “inhibits both cap-dependent and cap-independent translation”. In addition, the SI90 in the data set on Zika MR766 [6] stood at 22; in data set [9] (Assay No. 1), 2.6; in data set [9] (Assay No. 2) it was 6.3. In addition, the EC90 came to 930 nM in the data set with Zika MR766 [6]; 2700 nM in [9] (Huh-7, Assay No. 1); 380 nM in data set [9] (Huh-7, Assay No. 2). The CC50 is 6.9 µM in data set [7] (CC50, Assay No. 1, Neutral Red (Cytopathic effect/Toxicity) line); 6.9 µM in data set [7] (CC50, Assay No. 1, Neutral Red (Toxicity), line of the virus yield reduction assay); 2.4 µM in data set [7] (CC50, Assay No. 2, Neutral Red (Cytopathic effect/Toxicity) line); 2.4 µM in [7] (CC50, Assay No. 2, Neutral Red (Toxicity), line of the virus yield reduction assay); 20 µM in [11]. For the same compound, the colony formation entry in the data set on CML CD34+ cells (0.8 μM) was “completely inhibited”. The “CML CD34+ colony formation” value in the data set with CML CD34+ cells (14-290, 0.1 μM) stood at 91.81; in the data set with CML CD34+ cells (14-290, 0.2 μM), 19.40; in the data set on CML CD34+ cells (14-290, 0.4 μM), 12.50; in the data set with CML CD34+ cells (14-290, 0.8 μM), 0; in the data set on CML CD34+ cells (14-290, 1.6 μM), 0; in the data set with CML CD34+ cells (15-186, 0.1 μM) it was 87.06. For the same compound, the “CML CD34+ colony formation” value is on record as 52.10 in the data set with CML CD34+ cells (15-186, 0.2 μM); 38.81 with CML CD34+ cells (15-186, 0.4 μM); 0 in the data set on CML CD34+ cells (15-186, 0.8 μM); 0 in the data set with CML CD34+ cells (15-186, 1.6 μM); 89.44 in the data set on CML CD34+ cells (AVG, 0.1 μM); 35.75 with CML CD34+ cells (AVG, 0.2 μM). Moreover, the “CML CD34+ colony formation” value with CML CD34+ cells (AVG, 0.4 μM) is 25.66; in the data set with CML CD34+ cells (AVG, 0.8 μM), 0; in the data set with CML CD34+ cells (AVG, 1.6 μM) it was 0. Also, the “c-Myc and n-Myc protein” value in the data set with c-Myc and n-Myc is given as “inhibited at the protein level”.
With `Cc1sc2c(c1C)C(c1ccc(Cl)cc1)=N[C@@H](CC(=O)OC(C)(C)C)c1nnc(C)n1-2` [JQ1, reference compound], the “Gli-1 and c-Myc levels” value in the data set on Gli-1 and c-Myc is “decrease both Gli-1 and c-Myc”.
With `N.N.[Cl][Pt][Cl]` [Cisplatin, reference compound], the IC50 in the data set on MB002 cells (read-out: Dose Cis) turned out to be 780 nM.
With `CN(C)CC1COc2ccc3nc4n(c3c2C1)CC(CN(C)C)CN4` (stereo not drawn) [IBIS-560146], the IC50 in data set [4] (setting [14]) is above 2 µM.
Regarding `CN(C)CCCn1c(N)nc2ccc3c(c21)CC(CN(C)C)CO3` (stereo not drawn) [Isis-12], the IC50 in data set [4] (setting [14]) stood at 1.5 µM.
For `Nc1ncnc2c([C@H]3N[C@@H](CO)[C@H](O)[C@@H]3O)c[nH]c12` [BCX4430], in [13], the EC50 was 41.6 µM.
For `CN(C)CC1CNc2nc3ccc4c(c3n2C1)CC(CN(C)C)O4` (stereo not drawn) [Isis-075], the IC50 in data set [4] (setting [14]) is 0.36 µM.
`O=c1cnn([C@@H]2O[C@H](CO)[C@@H](O)[C@H]2O)c(=O)[nH]1` [Compound 6-azauridine, 6-azauridine, reference compound]: the values for the SI50 (with Zika MR766 [3]; in data set [10] (Assay No. 1); in data set [10] (Assay No. 2)) were 40, above 19 and 15, respectively. The EC50 with Zika MR766 [3] came to 0.66 µg/mL; in data set [10] (setting [15]) it was 5.3 µg/mL; in data set [10] (setting [16]), 1.8 µg/mL. Besides, the SI90 in the data set on Zika MR766 [6] is 0; in [9] (Assay No. 1), above 10; in data set [9] (Assay No. 2), 15. In addition, the EC90 in the data set on Zika MR766 [6] is above 26.5 µg/mL; in [9] (setting [15]), 10 µg/mL; in data set [9] (setting [16]) it was 1.8 µg/mL. The CC50 was above 100 µg/mL in data set [7] (Huh7 cells, CC50, Control drug, Assay No. 1, Neutral Red (Cytopathic effect/Toxicity) line); above 100 µg/mL in data set [7] (Huh7 cells, CC50, Control drug, Assay No. 1, Neutral Red (Toxicity), line of the virus yield reduction assay); 27 µg/mL in [7] (Huh7 cells, CC50, Control drug, Assay No. 2, Neutral Red (Cytopathic effect/Toxicity) line); 27 µg/mL in data set [7] (Huh7 cells, CC50, Control drug, Assay No. 2, Neutral Red (Toxicity), line of the virus yield reduction assay); 26.5 µg/mL in [11] (Vero 76 cells).
For `CN(C)CCCn1c(N)nc2ccc(OCCN(C)C)cc21` [Isis-4], in [4] (setting [14]), the IC50 was determined as 10 µM.
